The record followed here is PubChem BioAssay (NCI).

SMILES strings stand for the structures.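 All cell lines were grown in 96-well plates and treated with compound for 48 hours. At the TGI there is no net growth.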 Where a SMILES comes first, the peptide text is derived from it. [ ]: non-standard residue; d: D form. The star is where a group is joined. ξ: configuration not given here. ξD = NC(CC(=O)O)C(=O)O; Ac3c = NC1(C(=O)O)CC1; Boc = CC(C)(C)OC(=O)*; OtBu = CC(C)(C)O*

Test systems include HOP-92 NSCLC; MOLT-4 leukemia; HCT-116 colon; CCRF-CEM leukemia; HT29 colon; NCI-H226 lung; HL-60(TB) leukemia; OVCAR-3 ovarian; HCC-2998 colon; MDA-N.
What all share (experiment): DTP human tumour cell line panel, 48 h

Broadly, the TGI is the concentration giving total growth inhibition. A lower TGI goes with greater sensitivity of the cells.

As to `CN1Cc2c(nc(-c3ccc(Br)cc3)c[n+]2[O-])N(C)C1`, the concentration for total growth inhibition (TGI) in the assay with HOP-92 NSCLC, in the assay with MOLT-4 leukemia, with HCT-116 colon, in the assay on CCRF-CEM leukemia, in the assay on HT29 colon and in the assay with NCI-H226 lung was greater than 100 µM throughout. The TGI with HL-60(TB) leukemia and in the assay with OVCAR-3 ovarian was greater than 100 µM in each case.
For the compound `CN(C)C(=O)C(F)(F)C(c1ccc(Br)cc1)C1C(=O)N(C)C(=O)N(C)C1=O` (configuration not stated), the TGI with HOP-92 NSCLC, in the assay with HCC-2998 colon, in the assay with HCT-116 colon, in the assay with CCRF-CEM leukemia, with NCI-H226 lung and with OVCAR-3 ovarian was greater than 100 µM each time.
As for `O=C1NC2CCCCC2N=C1/C(C(=O)c1ccccc1)=C(\O)c1ccccc1` (configuration not stated), the TGI with MDA-N was greater than 100 µM; with HCC-2998 colon, greater than 100 µM; in the assay on MOLT-4 leukemia it was 79.3 µM; in the assay with HCT-116 colon it was greater than 100 µM; in the assay with CCRF-CEM leukemia, 84.7 µM; in the assay with HT29 colon it was greater than 100 µM. Also, the TGI in the assay on NCI-H226 lung was 46.8 µM; with HL-60(TB) leukemia, greater than 100 µM; in the assay with OVCAR-3 ovarian, greater than 100 µM.
For `O=C(O)c1cc(Cl)cc2c1NC1(N2)C(=O)Nc2ccccc21` (configuration not stated), the TGI with HOP-92 NSCLC, in the assay with MDA-N, in the assay on HCC-2998 colon, in the assay with MOLT-4 leukemia, with HCT-116 colon and with CCRF-CEM leukemia was greater than 100 µM throughout. Also, the TGI in the assay with HT29 colon, in the assay on NCI-H226 lung and in the assay with OVCAR-3 ovarian was greater than 100 µM throughout.
On to `O=S1(=O)C(c2ccccc2)=C(O)c2ccccc21`, for which the TGI with HOP-92 NSCLC, in the assay on HCC-2998 colon, in the assay with MOLT-4 leukemia, in the assay on HCT-116 colon, in the assay with CCRF-CEM leukemia and in the assay on HT29 colon was greater than 100 µM throughout. The TGI in the assay on NCI-H226 lung, in the assay on HL-60(TB) leukemia and in the assay with OVCAR-3 ovarian was greater than 100 µM each time.
For `O=C1c2ccccc2-c2nc(-c3ccccc3)cc3c2c1nc1ccccc13`, the TGI with MDA-N worked out at 3.67 µM; in the assay with HCC-2998 colon, 26.7 µM; in the assay with MOLT-4 leukemia, 36.4 µM; in the assay with HCT-116 colon, 36.5 µM; in the assay with CCRF-CEM leukemia, 28.2 µM; with HT29 colon, 25.9 µM. The TGI with NCI-H226 lung came out at 54.5 µM; with HL-60(TB) leukemia it was 15 µM; with OVCAR-3 ovarian it was 2.43 µM.
For the compound `COC(=O)/C(=C\c1ccco1)P(=O)(OC)OC`, the TGI was 91.9 µM in the assay with HOP-92 NSCLC; greater than 100 µM with MDA-N; greater than 100 µM with HCC-2998 colon; greater than 100 µM in the assay with MOLT-4 leukemia; greater than 100 µM in the assay with HCT-116 colon; 94.2 µM in the assay with CCRF-CEM leukemia. For the same compound, the TGI is 69.7 µM with HT29 colon, greater than 100 µM with NCI-H226 lung and 81.6 µM in the assay with OVCAR-3 ovarian.
In the case of `CCCCc1ccc(-n2sc3ncccc3c2=O)cc1`, the TGI with MDA-N worked out at 29.3 µM; with HCC-2998 colon, 33.7 µM; in the assay on MOLT-4 leukemia, 57.7 µM; in the assay with HCT-116 colon, 26.3 µM; with HT29 colon, 33.1 µM; with NCI-H226 lung it was 64.2 µM. The figures for the TGI in the assay with HL-60(TB) leukemia and in the assay on OVCAR-3 ovarian were 6.07 µM and 42.5 µM, respectively.
Turning to `N#CC1(c2ccccc2)CCN(C2(c3ccccc3)CCCCC2)CC1`, the TGI in the assay with MDA-N, in the assay on HCC-2998 colon, in the assay on MOLT-4 leukemia, with HCT-116 colon, in the assay on CCRF-CEM leukemia and in the assay on HT29 colon was greater than 100 µM throughout. Moreover, the TGI in the assay on NCI-H226 lung, in the assay on HL-60(TB) leukemia and with OVCAR-3 ovarian was greater than 100 µM each time.
With `CC(=O)C12C[C@](C#N)(N3CCCCCC3)C1C=Cc1ccccc12` (some centres not stated), the TGI with MDA-N, in the assay on HCC-2998 colon, with MOLT-4 leukemia, in the assay with HCT-116 colon, with CCRF-CEM leukemia and with HT29 colon was greater than 100 µM each time. The concentration for total growth inhibition (TGI) with NCI-H226 lung, in the assay with HL-60(TB) leukemia and in the assay with OVCAR-3 ovarian was greater than 100 µM throughout.
With `COc1ccc2c(-c3ccc(OCCN(C)C)cc3)c(Oc3ccc(Cl)cc3)c(=O)oc2c1`, the TGI with HOP-92 NSCLC turned out to be 32.5 µM; in the assay on MDA-N, 4.39 µM; in the assay on HCC-2998 colon it was 9.63 µM; with MOLT-4 leukemia it was 6.09 µM; in the assay on HCT-116 colon it was 8.49 µM; in the assay with CCRF-CEM leukemia it was 23.1 µM. The TGI in the assay with HT29 colon was greater than 46.7 µM; with NCI-H226 lung it was greater than 55.7 µM; in the assay on OVCAR-3 ovarian it was 21 µM.
As for `Cc1c(C#N)c2nnn(-c3ccccc3)c(=O)n2c1-c1ccccc1`, the TGI in the assay with HOP-92 NSCLC is greater than 100 µM; in the assay with HCC-2998 colon it was greater than 39.4 µM; in the assay on MOLT-4 leukemia it was 30.5 µM; with HCT-116 colon, 13.2 µM; in the assay with CCRF-CEM leukemia, greater than 20.7 µM; with NCI-H226 lung, greater than 100 µM. The compound further yielded a TGI with OVCAR-3 ovarian of 16.2 µM.
With `COc1nc(OC)nc(-c2cccc(F)c2)n1`, the TGI is 38.8 µM in the assay on HOP-92 NSCLC; 28.2 µM with HCC-2998 colon; greater than 100 µM in the assay with MOLT-4 leukemia; 40.5 µM in the assay with HCT-116 colon; greater than 100 µM in the assay on CCRF-CEM leukemia; 57.9 µM in the assay with HT29 colon. Also, the TGI was 31.1 µM with NCI-H226 lung, greater than 100 µM in the assay with HL-60(TB) leukemia and 27.7 µM with OVCAR-3 ovarian.
Turning to `COC(=O)C1(NC(=O)C(CC(=O)OC(C)(C)C)NC(=O)OC(C)(C)C)CC1` (configuration not stated) (Boc-[ξD](OtBu)-[Ac3c]-OMe), the concentration for total growth inhibition (TGI) in the assay on MDA-N, in the assay with HCC-2998 colon, in the assay on MOLT-4 leukemia, in the assay on HCT-116 colon, with CCRF-CEM leukemia and in the assay with HT29 colon was greater than 100 µM each time. Further, the TGI with NCI-H226 lung and in the assay with OVCAR-3 ovarian was greater than 100 µM in each case.
For the compound `[N-]=[N+]=NC[C@H]1OCO[C@H](CN=[N+]=[N-])[C@H]2OCCOCCOc3ccccc3OCCOCCO[C@@H]21`, the TGI in the assay on MDA-N, in the assay on HCC-2998 colon, in the assay on MOLT-4 leukemia, with HCT-116 colon, in the assay with CCRF-CEM leukemia and in the assay with HT29 colon was greater than 100 µM in each case. For the same compound, the TGI in the assay on NCI-H226 lung, with HL-60(TB) leukemia and in the assay with OVCAR-3 ovarian was greater than 100 µM in each case.
